Experimental data published in US11319303B2 (WIGEN BIOMEDICINE TECHNOLOGY (SHANGHAI) CO., LTD., priority 2017, dated 2022).
Structures can show the parent of a compound that is named as a salt.

These molecules were tested against LC3B (Homo sapiens, UniProt Q9GZQ8) (assay: Fluorescence Polarization (FP) Assay: displacement of FITC-labeled peptide from GST-LC3B). Details: Fluorescence Polarization assay; GST-LC3B 180 nM, FITC-labeled peptide 18 nM, 25° C.; read-out: IC50.
Type: binding
Experimental: The compounds of the present invention for regulating the autophagy-related protein LC3B were tested by Fluorescence Polarization (FP) Assay.
Fluorescence Polarization (FP) Assay Test

First: O=C1CC(c2ccco2)CC(=O)C1=CNCCN1CCN(CCO)CC1 (centres unmarked) [Compound 43, 5-(furan-2-yl)-2-(((2-(4-(2-hydroxyethyl)piperazin-1-yl)ethyl)amino)methylene) cyclohexane-1,3-dione]
Second: Cn1cccc1C1CC(=O)C(=CNCCN2CCN(CCO)CC2)C(=O)C1 (centres unmarked) [Compound 55, 2-(((2-(4-(2-hydroxyethyl)piperazin-1-yl)ethyl)amino)methylene)-5-(1-methyl-1H-pyrrol-2-yl)cyclohexane-1,3-dione]
The IC50 of the first is lower: 3 to 15 µM for the first, 15 to 100 µM for the second.

`COCCOc1ccc(C2CC(=O)C(=CNCCN3CCN(CCO)CC3)C(=O)C2)cc1` (centres unmarked) [Compound 44, 2-(((2-(4-(2-hydroxyethyl)piperazin-1-yl)ethyl)amino)methylene)-5-(4-(2-methoxyethoxy)phenyl) cyclohexane-1,3-dione] and `COCCOCCOc1ccc(C2CC(=O)C(=CNCCN3CCN(CCO)CC3)C(=O)C2)cc1` (centres unmarked) [Compound 45, 2-(((2-(4-(2-hydroxyethyl)piperazin-1-yl)ethyl)amino)methylene)-5-(4-(2-(2-methoxyethoxy)ethoxy)phenyl) cyclohexane-1,3-dione] fall in the same range of IC50: 15 to 100 µM for the first, 15 to 100 µM for the second.

`COc1ccc(C2CC(=O)C(=CNCCN3CCN(CCO)CC3)C(=O)C2)c(OC)c1` (centres unmarked) [Compound 46, 5-(2,4-dimethoxyphenyl)-2-(((2-(4-(2-hydroxyethyl)piperazin-1-yl)ethyl)amino)methylene) cyclohexane-1,3-dione] and `COc1ccc(C2CC(=O)C(=CNCCN3CCN(CCO)CC3)C(=O)C2)c2ccccc12` (centres unmarked) [Compound 54, 2-(((2-(4-(2-hydroxyethyl)piperazin-1-yl)ethyl)amino)methylene)-5-(4-methoxy-naphthalen-1-yl)cyclohexane-1,3-dione] cannot be ordered by IC50: under 3 µM for the first, under 3 µM for the second.

`O=C1CC(c2ccc(C(F)(F)F)cc2)CC(=O)C1=CNCCN1CCN(CCO)CC1` (centres unmarked) [Compound 48, 2-(((2-(4-(2-hydroxyethyl)piperazin-1-yl)ethyl)amino)methylene)-5-(4-(trifluoromethyl)phenyl) cyclohexane-1,3-dione] and `O=C1CC(c2ccc(OC(F)(F)F)cc2)CC(=O)C1=CNCCN1CCN(CCO)CC1` (centres unmarked) [Compound 50, 2-(((2-(4-(2-hydroxyethyl)piperazin-1-yl)ethyl)amino)methylene)-5-(4-(trifluoromethoxy)phenyl) cyclohexane-1,3-dione] cannot be ordered by IC50: under 3 µM for the first, under 3 µM for the second.

First: O=C1CC(c2ccc(F)cc2)CC(=O)C1=CNCCN1CCN(CCO)CC1 (centres unmarked) [Compound 49, 5-(4-fluorophenyl)-2-(((2-(4-(2-hydroxyethyl)piperazin-1-yl)ethyl)amino)methylene) cyclohexane-1,3-dione]
Second: N#Cc1ccc(C2CC(=O)C(=CNCCN3CCN(CCO)CC3)C(=O)C2)cc1 (centres unmarked) [Compound 51, 2-(((2-(4-(2-hydroxyethyl)piperazin-1-yl)ethyl)amino)methylene)-5-(4-(cyano)phenyl) cyclohexane-1,3-dione]
The IC50 of the first is lower: under 3 µM for the first, 15 to 100 µM for the second. The first is the more potent here.

Compared with `O=C1CC(c2ccccn2)CC(=O)C1=CNCCN1CCN(CCO)CC1` (centres unmarked) [Compound 53, 2-(((2-(4-(2-hydroxyethyl)piperazin-1-yl)ethyl)amino)methylene)-5-(pyridin-2-yl) cyclohexane-1,3-dione], `O=C1CC(c2c[nH]cn2)CC(=O)C1=CNCCN1CCN(CCO)CC1` (centres unmarked) [Compound 59, 2-(((2-(4-(2-hydroxyethyl)piperazin-1-yl)ethyl)amino)methylene)-5-(1H-imidazol-4-yl) cyclohexane-1,3-dione] is higher in IC50: 15 to 100 µM for the first, 100 to 1000 µM for the second. The first is the more potent here.

Compared with `O=C1CC(c2cccc3c2OCCO3)CC(=O)C1=CNCCN1CCN(CCO)CC1` (centres unmarked) [Compound 56, 5-(2,3-dihydrobenzo [b][1,4]dioxin-5-yl)-2-(((2-(4-(2-hydroxyethyl)piperazin-1-yl)ethyl)amino)methylene) cyclohexane-1,3-dione], `O=C1CC(c2cccc3[nH]ccc23)CC(=O)C1=CNCCN1CCN(CCO)CC1` (centres unmarked) [Compound 68, 2-(((2-(4-(2-hydroxyethyl)piperazin-1-yl)ethyl)amino)methylene)-5-(1H-indol-4-yl) cyclohexane-1,3-dione] is lower in IC50: 3 to 15 µM for the first, under 3 µM for the second. The second is the more potent here.

First: O=C1CC(c2nccs2)CC(=O)C1=CNCCN1CCN(CCO)CC1 (centres unmarked) [Compound 57, 2-(((2-(4-(2-hydroxyethyl)piperazin-1-yl)ethyl)amino)methylene)-5-(thiazol-2-yl) cyclohexane-1,3-dione]
Second: O=C1CC(c2csc3ccccc23)CC(=O)C1=CNCCN1CCN(CCO)CC1 (centres unmarked) [Compound 66, 5-(benzo[b]thiophen-3-yl)-2-(((2-(4-(2-hydroxyethyl)piperazin-1-yl)ethyl)amino)methylene) cyclohexane-1,3-dione]
The IC50 of the first is higher: 15 to 100 µM for the first, under 3 µM for the second. The second is the more potent here.

First: O=C1CC(c2c3ccccc3cc3ccccc23)CC(=O)C1=CNCCN1CCN(CCO)CC1 (centres unmarked) [Compound 61, 5-(anthracen-9-yl)-2-(((2-(4-(2-hydroxyethyl)piperazin-1-yl)ethyl)amino)methylene) cyclohexane-1,3-dione]
Second: O=C1CC(c2ccnc3ccccc23)CC(=O)C1=CNCCN1CCN(CCO)CC1 (centres unmarked) [Compound 62, 2-(((2-(4-(2-hydroxyethyl)piperazin-1-yl)ethyl)amino)methylene)-5-(quinolin-4-yl) cyclohexane-1,3-dione]
The IC50 of the first is lower: under 3 µM for the first, 3 to 15 µM for the second.

First: CCC(CC)C1CC(=O)C(=CNCCN2CCN(CCO)CC2)C(=O)C1 (centres unmarked) [Compound 63, 2-(((2-(4-(2-hydroxyethyl)piperazin-1-yl)ethyl)amino)methylene)-5-(pentan-3-yl) cyclohexane-1,3-dione]
Second: O=C1CC(C2CC2)CC(=O)C1=CNCCN1CCN(CCO)CC1 (centres unmarked) [Compound 67, 5-cyclopropyl-2-(((2-(4-(2-hydroxyethyl)piperazin-1-yl)ethyl)amino)methylene) cyclohexane-1,3-dione]
The IC50 of the first is lower: 15 to 100 µM for the first, 100 to 1000 µM for the second.

`O=C1CC(C2CCOCC2)CC(=O)C1=CNCCN1CCN(CCO)CC1` (centres unmarked) [Compound 64, 2-(((2-(4-(2-hydroxyethyl)piperazin-1-yl)ethyl)amino)methylene)-5-(tetrahydro-2H-pyran-4-yl)cyclohexane-1,3-dione] and `O=C1CC(C2CCNCC2)CC(=O)C1=CNCCN1CCN(CCO)CC1` (centres unmarked) [Compound 70, 2-(((2-(4-(2-hydroxyethyl)piperazin-1-yl)ethyl)amino)methylene)-5-(piperidin-4-yl) cyclohexane-1,3-dione HCl salt] fall in the same range of IC50: 100 to 1000 µM for the first, 100 to 1000 µM for the second.

Compared with `CS(=O)(=O)c1ccc(C2CC(=O)C(=CNCCN3CCN(CCO)CC3)C(=O)C2)cc1` (centres unmarked) [Compound 65, 2-(((2-(4-(2-hydroxyethyl)piperazin-1-yl)ethyl)amino)methylene)-5-(4-(methylsulfonyl)phenyl) cyclohexane-1,3-dione], `O=C1CC(c2ccc(-c3ccncc3)s2)CC(=O)C1=CNCCN1CCN(CCO)CC1` (centres unmarked) [Compound 72, 2-(((2-(4-(2-hydroxyethyl)piperazin-1-yl)ethyl)amino)methylene)-5-(5-(pyridin-4-yl)thiophen-2-yl)cyclohexane-1,3-dione] is lower in IC50: 100 to 1000 µM for the first, under 3 µM for the second.

`CC(c1ccccc1)C1CC(=O)C(=CNCCN2CCN(CCO)CC2)C(=O)C1` (centres unmarked) [Compound 69, 2-(((2-(4-(2-hydroxyethyl)piperazin-1-yl)ethyl)amino)methylene)-5-(1-phenylethyl) cyclohexane-1,3-dione] and `O=C1CC(c2ccc(OCCOc3ccncc3)cc2)CC(=O)C1=CNCCN1CCN(CCO)CC1` (centres unmarked) [Compound 71, 2-(((2-(4-(2-hydroxyethyl)piperazin-1-yl)ethyl)amino)methylene)-5-(4-(2-(pyridin-4-yloxy)ethoxy)phenyl) cyclohexane-1,3-dione] fall in the same range of IC50: 15 to 100 µM for the first, 15 to 100 µM for the second.
